Tested on: LDL-C in plasma
Test: Effect on LDL-C of rat in combination use of compound A and niacin
Assay type: in vivo
Settings: male SD rats, oral once per day for one week, blood 4 h after final administration; single agent: compound A 0.1 mg/kg or nicotinic acid 100 mg/kg
From the text: Male rats (6-week-old, Jcl:SD, CLEA Japan, Inc.) were used for an experiment. Blood was collected from the jugular vein under satiation. The rats were divided into four groups (N=8) based on TG and TC in plasma and a body weight. For one week from the next day, each of a solvent (0.5% methylcellulose aqueous solution: MC), compound A alone, nicotinic acid alone, and combination of compound A and nicotinic acid was orally administered once per day. Four hours after final administration of the pharmaceutical agent, blood was collected under isoflurane anesthesia, and LDL-C in plasma was measured using high performance liquid chromatography by a method of Usui et al (Usui S et al. Clin Chem., 46, 63-72, 2000). Group 1: Control Group 2: 0.1 mg/kg of compound A […] Group 4: 0.1 mg/kg of compound A and 100 mg/kg of nicotinic acid Results were presented by an average value±standard deviation. Comparison between the control group and each of the pharmaceutical agent administration groups was performed by a multiple comparison test of Dunnett, and a risk rate of less than 5% was determined to have a significant difference.

Structure (SMILES)	effect on LDL-C in plasma
CC[C@@H](Oc1cccc(CN(CCCOc2ccc(OC)cc2)c2nc3ccccc3o2)c1)C(=O)O [Compound A, (R)-2-[3-[[N-(benzoxazol-2-yl)-N-3-(4-methoxyphenoxy)propyl]aminomethyl]phenoxy] butyric acid]	did not exhibit a clear effect on LDL-C
O=C(O)c1cccnc1 [nicotinic acid, pyridine-3-carboxylic acid]	did not exhibit a clear effect on LDL-C
